Measured values published in PubChem BioAssay (NCI).
Where “and” joins values, the source holds several entries; their conditions need not be identical. Equal values may be shown once.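 A five-concentration, 48-hour dose response in 96-well plates underlies each endpoint, interpolated linearly between surrounding concentrations. Here, GI50 denotes the concentration required for 50% inhibition of growth. TGI denotes the concentration required for complete inhibition of growth.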

How the values were obtained:
Experiment in all cases: DTP human tumour cell line panel, 48 h
[1] = test system: 786-0 renal
[2] = test system: A498 renal
[3] = test system: A549 NSCLC
[4] = test system: ACHN renal
[5] = test system: BT-549 breast
[6] = test system: CAKI-1 renal
[7] = test system: CCRF-CEM leukemia
[8] = test system: COLO 205 colon
[9] = test system: DU-145 prostate
[10] = test system: EKVX NSCLC
[11] = test system: HCC-2998 colon
[12] = test system: HCT-116 colon
[13] = test system: HCT-15 colon
[14] = test system: HOP-62 NSCLC
[15] = test system: HOP-92 NSCLC
[16] = test system: HS 578T breast
[17] = test system: IGROV1 ovarian
[18] = test system: K-562 leukemia
[19] = test system: KM12 colon
[20] = test system: LOX IMVI melanoma
[21] = test system: M14 melanoma
[22] = test system: MALME-3M melanoma
[23] = test system: MDA-MB-231 breast
[24] = test system: MDA-MB-435
[25] = test system: MDA-MB-468 breast
[26] = test system: MOLT-4 leukemia
[27] = test system: NCI-H226 lung
[28] = test system: NCI-H23 lung
[29] = test system: NCI-H460 lung
[30] = test system: NCI-H522 lung
[31] = test system: NCI/ADR-RES ovarian
[32] = test system: OVCAR-3 ovarian
[33] = test system: OVCAR-4 ovarian
[34] = test system: OVCAR-5 ovarian
[35] = test system: OVCAR-8 ovarian
[36] = test system: RPMI-8226 leukemia
[37] = test system: RXF 393 renal
[38] = test system: SF-268 CNS
[39] = test system: SF-295 CNS
[40] = test system: SF-539 CNS
[41] = test system: SK-MEL-2 melanoma
[42] = test system: SK-MEL-28 melanoma
[43] = test system: SK-MEL-5 melanoma
[44] = test system: SK-OV-3 ovarian
[45] = test system: SN12C renal
[46] = test system: SNB-19 CNS
[47] = test system: SNB-75 CNS
[48] = test system: SW-620 colon
[49] = test system: TK-10 renal
[50] = test system: U251 CNS
[51] = test system: UACC-257 melanoma
[52] = test system: UACC-62 melanoma
[53] = test system: HL-60(TB) leukemia
[54] = test system: MCF7 breast
[55] = test system: PC-3 prostate
[56] = test system: SR leukemia
[57] = test system: T-47D breast
[58] = test system: UO-31 renal

Compound: Cc1cccc(-c2nc(Nc3cccc(S(N)(=O)=O)c3)c3ccccc3n2)c1
- GI50 [1]: 8530 nM
- TGI [1]: > 100000 nM
- GI50 [2]: > 100000 nM
- TGI [2]: > 100000 nM
- GI50 [3]: 10900 nM
- TGI [3]: > 100000 nM
- GI50 [4]: 7930 nM
- TGI [4]: > 100000 nM
- GI50 [5]: > 100000 nM
- TGI [5]: > 100000 nM
- GI50 [6]: 13800 nM
- TGI [6]: > 100000 nM
- GI50 [7]: 4770 nM
- TGI [7]: > 100000 nM
- GI50 [8]: > 100000 nM
- TGI [8]: > 100000 nM
- GI50 [9]: > 100000 nM
- TGI [9]: > 100000 nM
- GI50 [10]: > 100000 nM
- TGI [10]: > 100000 nM
- GI50 [11]: 4980 nM
- TGI [11]: > 100000 nM
- GI50 [12]: 8090 nM
- TGI [12]: > 100000 nM
- GI50 [13]: 3530 nM
- TGI [13]: > 100000 nM
- GI50 [14]: > 100000 nM
- TGI [14]: > 100000 nM
- GI50 [15]: 34900 nM
- TGI [15]: > 100000 nM
- GI50 [16]: > 100000 nM
- TGI [16]: > 100000 nM
- GI50 [17]: > 100000 nM
- TGI [17]: > 100000 nM
- GI50 [18]: 3230 nM
- TGI [18]: > 100000 nM
- GI50 [19]: 3620 nM
- TGI [19]: > 100000 nM
- GI50 [20]: 4760 nM
- TGI [20]: > 100000 nM
- GI50 [21]: > 100000 nM
- TGI [21]: > 100000 nM
- GI50 [22]: > 100000 nM
- TGI [22]: > 100000 nM
- GI50 [23]: 6520 nM
- TGI [23]: > 100000 nM
- GI50 [24]: > 100000 nM
- TGI [24]: > 100000 nM
- GI50 [25]: 5570 nM
- TGI [25]: > 100000 nM
- GI50 [26]: 4100 nM
- TGI [26]: > 100000 nM
- GI50 [27]: > 100000 nM
- TGI [27]: > 100000 nM
- GI50 [28]: 30600 nM
- TGI [28]: > 100000 nM
- GI50 [29]: 7200 nM
- TGI [29]: 43000 nM
- GI50 [30]: 5690 nM
- TGI [30]: > 100000 nM
- GI50 [31]: 7080 nM
- TGI [31]: > 100000 nM
- GI50 [32]: 9420 nM
- TGI [32]: > 100000 nM
- GI50 [33]: > 100000 nM
- TGI [33]: > 100000 nM
- GI50 [34]: > 100000 nM
- TGI [34]: > 100000 nM
- GI50 [35]: 9820 nM
- TGI [35]: > 100000 nM
- GI50 [36]: 7660 nM
- TGI [36]: > 100000 nM
- GI50 [37]: 6230 nM
- TGI [37]: > 100000 nM
- GI50 [38]: > 100000 nM
- TGI [38]: > 100000 nM
- GI50 [39]: 4430 nM
- TGI [39]: > 100000 nM
- GI50 [40]: 6200 nM
- TGI [40]: 25100 nM
- GI50 [41]: > 100000 nM
- TGI [41]: > 100000 nM
- GI50 [42]: > 100000 nM
- TGI [42]: > 100000 nM
- GI50 [43]: > 100000 nM
- TGI [43]: > 100000 nM
- GI50 [44]: > 100000 nM
- TGI [44]: > 100000 nM
- GI50 [45]: > 100000 nM
- TGI [45]: > 100000 nM
- GI50 [46]: > 100000 nM
- TGI [46]: > 100000 nM
- GI50 [47]: > 100000 nM
- TGI [47]: > 100000 nM
- GI50 [48]: 17400 nM
- TGI [48]: > 100000 nM
- GI50 [49]: > 100000 nM
- TGI [49]: > 100000 nM
- GI50 [50]: 11600 nM
- TGI [50]: > 100000 nM
- GI50 [51]: > 100000 nM
- TGI [51]: > 100000 nM
- GI50 [52]: > 100000 nM
- TGI [52]: > 100000 nM

Compound: CC(C)C[C@H](NC(=O)[C@@H]1CCCCCCCCCCC(=O)N[C@@H](CC(=O)N2CCC[C@@H]2C2CCCC2)C(=O)N1)B(O)O
- GI50 [1]: 24.9 nM and 21.8 nM
- TGI [1]: 173 nM and 168 nM
- GI50 [2]: 21.6 nM and 34.4 nM
- TGI [2]: 98.2 nM and 180 nM
- GI50 [3]: 7.11 nM
- TGI [3]: 4570 nM
- GI50 [4]: 58.5 nM and 25.9 nM
- TGI [4]: 5940 nM
- GI50 [5]: 1.4 nM
- TGI [5]: 3.05 nM
- GI50 [6]: 108 nM and 52.6 nM
- TGI [6]: 3350 nM
- GI50 [7]: 2.87 nM
- GI50 [8]: 4.5 nM
- TGI [8]: 20.2 nM and 18 nM
- GI50 [9]: 8.46 nM
- TGI [9]: 37000 nM
- GI50 [10]: 9.25 nM and 21.7 nM
- GI50 [11]: 1.83 nM
- TGI [11]: 3.32 nM
- GI50 [12]: 2.6 nM
- GI50 [13]: 119 nM and 224 nM
- TGI [13]: 356 nM and 2460 nM
- GI50 [53]: 3.2 nM
- TGI [53]: 1940 nM
- GI50 [14]: 5.68 nM
- TGI [14]: 23 nM
- GI50 [15]: 2.23 nM
- TGI [15]: 6.22 nM
- GI50 [16]: 4.22 nM
- TGI [16]: 94 nM
- GI50 [17]: 4.08 nM
- GI50 [18]: 4.56 nM
- TGI [18]: > 100000 nM
- GI50 [20]: 1.75 nM
- TGI [20]: 3.46 nM
- GI50 [21]: 5.5 nM
- TGI [21]: 75.4 nM and 109 nM
- GI50 [22]: 1.64 nM
- TGI [22]: 3.71 nM and 23.8 nM
- GI50 [54]: 3.7 nM
- GI50 [23]: 1.87 nM
- TGI [23]: 3.81 nM
- GI50 [24]: 2.57 nM
- TGI [24]: 6.73 nM
- GI50 [25]: 2.02 nM
- TGI [25]: 4.4 nM
- GI50 [26]: 3.4 nM
- TGI [26]: 8480 nM
- GI50 [27]: 3.97 nM
- TGI [27]: 17.2 nM
- GI50 [28]: 2.15 nM
- TGI [28]: 5.11 nM
- GI50 [29]: 8.62 nM
- TGI [29]: 43.6 nM and 40.5 nM
- GI50 [30]: 2.21 nM
- TGI [30]: 5.66 nM
- GI50 [31]: 1970 nM
- TGI [31]: 5900 nM
- GI50 [32]: 4.07 nM
- TGI [32]: 16.8 nM
- GI50 [33]: 3.65 nM
- TGI [33]: 16.9 nM
- GI50 [34]: 2.89 nM
- TGI [34]: 11.9 nM
- GI50 [35]: 22.2 nM and 15.7 nM
- TGI [35]: 10200 nM
- GI50 [55]: 4.61 nM
- TGI [55]: 96.4 nM and 59.3 nM
- GI50 [36]: 3.72 nM
- GI50 [37]: 2.53 nM
- TGI [37]: 6.28 nM
- GI50 [38]: 4.46 nM
- TGI [38]: 46.6 nM
- GI50 [39]: 3.83 nM
- TGI [39]: 14.5 nM
- GI50 [40]: 1.8 nM
- TGI [40]: 3.47 nM
- GI50 [43]: 1.77 nM
- TGI [43]: 4.27 nM
- GI50 [44]: 4.43 nM
- TGI [44]: 23.6 nM and 15.9 nM
- GI50 [45]: 2.15 nM
- TGI [45]: 5.04 nM and 11.3 nM
- GI50 [46]: 3.67 nM
- GI50 [56]: 3.81 nM
- TGI [56]: > 100000 nM
- GI50 [48]: 4.09 nM
- TGI [48]: 42 nM and 25.4 nM
- GI50 [57]: 1.99 nM
- TGI [57]: 5.29 nM
- GI50 [49]: 41 nM and 37.3 nM
- TGI [49]: 208 nM and 462 nM
- GI50 [50]: 3.92 nM
- TGI [50]: 17.8 nM and 72.9 nM
- GI50 [51]: 3.76 nM
- TGI [51]: 289 nM and 1200 nM
- GI50 [52]: 1.77 nM
- TGI [52]: 3.56 nM
- GI50 [58]: 171 nM and 317 nM
- TGI [58]: 466 nM and 1800 nM
